Assays:
[1] = target: T1, BACE1 (Homo sapiens (Human), UniProt P56817); assay: BACE1 efficacy assay (FRET-based, commercial BACE1 kit); type: biochemical; settings: 10 μM test compound
Protocol: The efficacy assay was performed as a FRET-based assay using a commercially available BACE1 kit (Life Technologies, P2985). 2 μl test compound at 10 μM (final concentration) and 15 μl BACE1 enzyme from the kit (final concentration 3 nM) were preincubated for 15 minutes at room temperature before addition of 15 μl of substrate from the kit (250 nM final concentration) and incubated for additional 90 minutes at room temperature. The assay plate was subsequently read in a Pherastar (Ex540/Em590). The enzyme activity observed in presence of test compound were normalized to the enzyme activity observed in presence of buffer and 10 μM (final concentration) of the high affinity BACE1 reference inhibitor (S)-6-[3-Chloro-5-(5-prop-1-ynyl-pyridin-3-yl)-thiophen-2-yl]-2-imino-3,6-dimethyl-tetra-hydropyrimidin-4-one, respectively. The efficacy of the test compounds was evaluated at 10 μM (final concentration) and defined as the percent inhibition of the enzyme activity using the equation % inhibition=100%−normalized enzyme activity in percent.

[2] = tested on: P-gp (MDR1); assay: MDCK-MDR1 assay (permeability, efflux ratio); type: in vitro ADME; settings: dog, Papp BA/Papp AB, 60-minute incubation, Pgp substrate when ≥2
Protocol: The permeability of the test compounds was assessed in MDCK-MDR1 cells that were cultured to confluency (4-6 days) in a 96 transwell plate. Test compounds were diluted with the transport buffer (HBSS+1% BSA) to a concentration of 0.5 μM and applied to the apical or basolateral side of the cell monolayer. Permeation of the test compounds from A to B direction or B to A direction was determined in triplicate over a 60-minute incubation time at 37° C. and 5% CO2 with a relative humidity of 95%. Test compounds were quantified by LC-MS/MS analysis based on the peaks area ratios of analyte/IS in both the receiver and donor wells of the transwell plate.
The apparent permeability coefficient Papp (cm/s) was calculated using the equation: Papp=(dCr/dt)×Vr/(A×C0)
Where dCr/dt is the cumulative concentration of compound in the receiver chamber as a function of time (M/s); Vr is the solution volume in the receiver chamber (0.05 mL on the apical side; 0.25 mL on the basolateral side); A is the surface area for the transport, i.e. 0.0804 cm^2 for the area of the monolayer; C0 is the initial concentration in the donor chamber (VIM).
Compounds are classified Pgp substrates when efflux ratio (Papp BA/Papp AB) is ≥2.

[3] = target: T1, BACE1; assay: BACE1 binding assay (SPA-based radioligand binding); settings: pH 4.5, 10 nM radioligand, Ki calculated from IC50
Protocol: The binding assay was performed as SPA-based assay using a biotinylated form of human BACE1 recombinantly expressed and subsequently purified from Freestyle HEK293 cells. The binding assay was run in a 50 mM sodium acetate buffer, pH 4.5 containing 50 mM NaCl and 0.03% Tween-20 in white clear bottom 384 plates (Corning #3653). 10 nM (final concentration) radioligand ([^3H]—N-((1S,2R)-1-benzyl-3-cyclopropylamino-2-hydroxy-propyl)-5-(methanesulfonyl-methyl-amino)-N—((R)-1-phenyl-ethyl)-isophthalamide) (TRQ11569 purchased from GE Healthcare) was mixed with test compound at a given concentration, 6 nM (final concentration) human BACE1 and 25 μg Streptavidin coated PVT core SPA beads (RPNQ0007, GE Healthcare Life Sciences) in a total volume of 40 μl. Several concentrations of each test compound were tested in the assay for IC50 determination. The plates were incubated for one hour at room temperature and counted in a Wallac Trilux counter. Total and non-specific binding were determined using buffer and 1 μM (final concentration) of the high affinity BACE1 reference inhibitor (S)-6-[3-chloro-5-(5-prop-1-ynyl-pyridin-3-yl)-thiophen-2-yl]-2-imino-3,6-dimethyl-tetrahydro-pyrimidin-4-one, respectively. For each test compound, a IC50 value (the concentration mediating 50% inhibition of the specific binding of the radioligand) was determined from concentration-response curve and used to calculate the Ki from the equation Ki=IC50/(1+L/Kd), where L and Kd are the final concentration of the radioligand used in the assay and the dissociation constant of the radioligand, respectively. The Kd of the radioligand was determined from saturation binding experiments.

T1 sequence (P56817 46-501): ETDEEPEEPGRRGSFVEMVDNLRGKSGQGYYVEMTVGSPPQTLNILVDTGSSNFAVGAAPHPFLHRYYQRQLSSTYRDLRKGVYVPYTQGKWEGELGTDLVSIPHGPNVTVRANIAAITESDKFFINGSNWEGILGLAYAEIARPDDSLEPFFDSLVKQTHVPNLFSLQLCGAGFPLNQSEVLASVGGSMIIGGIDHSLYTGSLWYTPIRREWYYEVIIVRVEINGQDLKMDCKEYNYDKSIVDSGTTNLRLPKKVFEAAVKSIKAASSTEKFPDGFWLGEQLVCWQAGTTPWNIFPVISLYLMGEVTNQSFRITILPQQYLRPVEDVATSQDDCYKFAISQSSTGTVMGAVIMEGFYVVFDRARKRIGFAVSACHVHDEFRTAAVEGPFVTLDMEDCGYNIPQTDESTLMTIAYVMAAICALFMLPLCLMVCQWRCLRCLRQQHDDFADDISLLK

| inhibition at 10 µM [1] | efflux ratio at 60 min, 0.5 μM [2] | Ki [3] | SMILES |
| --- | --- | --- | --- |
| 117% | 1.15 | 4.1 nM | Cc1cc(C#N)cnc1C(=O)Nc1ccc(F)c([C@@]2(C)N=C(N)[C@@](C)(F)C[C@@H]2F)c1 [Compound 21, N-(3-((2R,3S,5S)-6-amino-3,5-difluoro-2,5-dimethyl-2,3,4,5-tetrahydropyridin-2-yl)-4-fluorophenyl)-5-cyano-3-methylpicolinamide] |
| 101% | 0.52 | 3.6 nM | [2H]C([2H])([2H])Oc1ccc(C(=O)Nc2cc(F)c(F)c([C@@]3(C)N=C(N)[C@@](C)(F)C[C@@H]3F)c2)nc1 [Compound 22, N-(3-((2R,3S,5S)-6-amino-3,5-difluoro-2,5-dimethyl-2,3,4,5-tetrahydropyridin-2-yl)-4,5-difluorophenyl)-5-(methoxy-d3)picolinamide] |
| 107% | 0.95 | 81 nM | [2H]C([2H])([2H])Oc1ccc(C(=O)Nc2ccc(F)c([C@@]3(C)N=C(N)[C@@](C)(F)C[C@H]3F)c2)nc1 [Compound 23, N-(3-((2R,3R,5S)-6-amino-3,5-difluoro-2,5-dimethyl-2,3,4,5-tetrahydropyridin-2-yl)-4-fluorophenyl)-5-(methoxy-d3)picolinamide] |

Reference: patent US10059669B2, “2-amino-3,5-difluoro-3,6-dimethyl-6-phenyl-3,4,5,6-tetrahydropyridines as BACE1 inhibitors for treating alzheimer's disease” (H. Lundbeck A/S, priority 2014, dated 2018)
